Results taken from paper PMC7098565 (PLoS ONE, 2020).
Values joined by “and” are separate entries in the source; they are usually repeats but may differ in a detail not shown here. Identical values can stand only once. Like-named read-outs stand apart in the source and are kept apart here.

Tests used:
[1] = Pharmacokinetics in plasma and tumor from melanoma-bearing mice (LC-MS/MS); assay type: in vivo; conditions: single oral dose 60 mg/kg; for concentration at 1 h / concentration at 3 h: male, C57BL/6NCrl, mouse, plasma, po; for concentration at 1 h / concentration at 3 h / Concentration in Tumor: 60 mg/kg
Method: At 1h, 3h and 8h after the dosing, 5 mice were decapitated, respectively, for collecting plasma and tumor tissues. All plasma samples were centrifuged for 10 min at 3000 g, separated and stored at -20 °C for followed analysis. The tumor tissues were homogenated in water (w/v = 1:4). The LC-MS/MS system consisted of an Agilent 1100 series HPLC system (Agilent Technologies, Waldbronn, USA) and a TSQ Quantum Assess tandem mass spectrometer (Thermo Electron Corporation, San Jose, CA, USA) equipped with ESI ion source operation in the positive mode. Data acquisition and processing were accomplished using the Xcaliber workstation. The chromatography separation was performed on a Waters symmetry CLU columns (150 × 2.1 mm i.e., 3.5 am, Warders, USA) with the flow rate of 0.2 ml/min in isocratic elution. The mobile phase consisted of acetonitrile-methanol-water (50:30:20, v/v/v) containing 0.1 mm ammonium acetate and 0.01% glacial acetic acid. The selective reactions monitoring mode was used to detect the analyses. […] The spray voltage was 4 kv. Sheath gas and auxilinry gas were 30 and 5 psi, respectively. The capillary temperature was 350 °C and argon gas pressure was 1.5 milli-Torr.

IFN-γ = test: Plasma IFN-γ level in melanoma-bearing mice (ELISA); assay type: in vivo
Human CD3+ cells [2] = test: Cytotoxicity to human CD3+ cells, CellTiter-Glo (CTG) assay; assay type: cell-based; conditions: 72 h, aCD3/aCD28 1 μg/mL, mean ± S.D (n = 3)
Method: Human CD3^+ cells with the purity above 95% were provided by LDEBIO company (Guangzhou, China). CD3^+ cells were plated in the 96-well plate with a density of 1 × 10^5 cells/well in 100 μL of DMEM medium containing 10% FBS. The 50 μL of anti-CD3 antibody and anti-CD28 antibody (aCD3 and aCD28, final concentration of 1 μg/mL for each) were added into 96-well plate. […] CellTiter-Glo (CTG) reagent was added into the wells to measure CD3^+ cell viability.

PD-1 and PD-L1 binding = target: PD-1 and PD-L1 binding; parameters: method as in PMID 27083005; conditions: HTRF binding assay; cited from earlier work
Human CD3+ cells [3] = test: IFN-γ secretion by human CD3+ cells in vitro (ELISA), rescue of PD-L1-mediated inhibition; assay type: cell-based; conditions: for IFN-γl: aCD3/aCD28 1 μg/mL + PD-L1 protein 10 nM, 72 h, single samples
Method: Human CD3^+ cells were plated in the 96-well plate with a density of 1 × 10^5 cells/well in 100 μL of DMEM containing 10% FBS. The 50 μL of aCD3 and aCD28 (final concentration of 1 μg/mL for each) were added into 96-well plate without or with 50 μL of human PD-L1 protein (final concentation of 10 nM). […] The supernatants were collected for detection of IFN-γ by using human IFN-γ ELISA Kit.

T lymphocytes in tumors = test: Flow cytometry of T lymphocytes in tumors from melanoma-bearing mice; assay type: in vivo; conditions: for % Treg of CD4^+ / % CD3^+ of lymphocyte / % CD4^+ of CD3^+ / % CD8^+ of CD3^+ / % CD8^+IFN-γ of CD3D^+CD8^+: tumor, day 20, single mice; for % Treg of CD4^+: Treg = CD4+CD25+CD127low/-
B16-F10 tumors = test: B16-F10 tumor isograft model, tumor growth; assay type: in vivo, mice; conditions: for Tumor volume / Tumor weight: single mice
CT26.WT = test: Cytotoxicity to tumor cells, MTT assay; assay type: cell-based; conditions: Mus musculus, mean ± S.D (n = 3)
Method: Mouse melanoma cell line B16-F10 (ATCC® Number: CRL-6475™) and mouse cell line CT26.WT (TCM37) were obtained from Cell Culture Center of the Institute of Basic Medical Sciences, Chinese Academy of Medical Sciences. The cells were maintained in DMEM supplemented with 10% (v/v) heat-inactivated fetal bovine serum (FBS) in a humidified 5% CO2 atmosphere at 37 °C. Tumor cells were plated in 96-well plate with a density of 5 × 10^3 cells/well in 100 μL. […] The medium was subsequently discarded, and 150 μL of DMSO was added to dissolve the formazan crystals. The absorbance was measured at 570 nm using a Molecular Devices Spectra Max M5 (Molecular Devices, USA).

B16-F10 = test: Cytotoxicity to tumor cells, MTT assay; assay type: cell-based; conditions: Mus musculus, 24 h, mean ± S.D (n = 3), read-out: IC50 B16F10
[4] = treatment groups (30 and 60 mg/kg), P < 0.05, n = 6
[5] = 30 mg/kg oral twice daily, day 20

## COc1nc(OCc2cccc(-c3ccccc3)c2C)ccc1CNCCNC(C)=O [PCC0208025, N-(2-{[2-Methoxy-6-(2-methyl-biphenyl-3-ylmethoxy)-pyridin-3-ylmethyl]-amino}-ethyl)-acetamide]
[1]; 1h, n = 5, read-out: average concentration in plasma
  concentration at 1 h: ~4.36 nM
[1]; 1h, single mice, read-out: Concentration in Plasma
  concentration at 1 h: 3.8 nM
[1]; 3h, n = 5, read-out: average concentration in plasma
  concentration at 3 h: ~3.94 nM
[1]; 3h, single mice, read-out: Concentration in Plasma
  concentration at 3 h: 4.16 nM
[1]; 1h, n = 5
  average concentration in tumor: about 160.7 nmol/kg
[1]; 1h, single mice
  Concentration in Tumor: 167.3 nmol/kg and 207.3 nmol/kg and 154.8 nmol/kg and 139.1 nmol/kg and 136.3 nmol/kg
[1]; 3h, n = 5
  average concentration in tumor: ~196.7 nmol/kg
[1]; 3h, single mice
  Concentration in Tumor: 185.3 nmol/kg and 206.5 nmol/kg and 218.5 nmol/kg and 178.7 nmol/kg
[1]; 8h, n = 5
  average concentration in tumor: ~127.3 nmol/kg
[1]; 8h, single mice
  Concentration in Tumor: 132.4 nmol/kg and 146.7 nmol/kg and 123.3 nmol/kg and 103.8 nmol/kg and 133.2 nmol/kg
IFN-γ; 60 mg/kg oral twice daily, day 20, single mice
  IFN-γ level in plasma: 1678.5 pg/mL and 1589.6 pg/mL and 1467.7 pg/mL and 1256.8 pg/mL and 1756.2 pg/mL and 1476.1 pg/mL
IFN-γ; 30 and 60 mg/kg, P < 0.05, n = 6
  plasma IFN-γ levels compared with the control group: markedly elevated
Human CD3+ cells [2]
  IC50: 10.3 ± 1.3 µM
PD-1 and PD-L1 binding
  IC50: 0.018 µM
Human CD3+ cells [3]; 0.01 to 1 μM, vs aCD3/aCD28 and PD-L1 group, P < 0.05, n = 6
  PD-L1-mediated inhibition of IFN-γ production: markedly rescued
Human CD3+ cells [3]; substance 0.1 mM (so in the source)
  IFN-γl: 768.3 pg/mL and 1056.6 pg/mL and 850.5 pg/mL and 945.6 pg/mL and 689.7 pg/mL and 789.4 pg/mL
Human CD3+ cells [3]; substance 1 mM (so in the source)
  IFN-γl: 798.3 pg/mL and 824.3 pg/mL and 997.0 pg/mL and 723.5 pg/mL and 908.8 pg/mL and 857.7 pg/mL
Human CD3+ cells [3]; substance 10 mM (so in the source)
  IFN-γl: 468.7 pg/mL and 398.5 pg/mL and 576.3 pg/mL and 435.3 pg/mL and 587.5 pg/mL and 523.4 pg/mL
T lymphocytes in tumors; 30 mg/kg and 60 mg/kg, P < 0.05, n = 6
  percentage of CD4^+CD25^+CD127^low/− (Treg) in tumor compared with the control group: significantly decreased
T lymphocytes in tumors; 60 mg/kg group, P < 0.05, n = 6
  percentage of CD3^+CD4^+ T cells in tumor compared with the control group: significant decreases
T lymphocytes in tumors; [4]
  percentage of CD3^+ T cells in tumor compared with the control group: markedly increased
  percentage of CD3^+CD8^+ T cells in tumor compared with the control group: markedly increased
  percentage of CD8^+IFN-γ^+ T cells in tumor compared with the control group: markedly increased
T lymphocytes in tumors; 30 mg/kg, 30 mg/kg
  % Treg of CD4^+: 26.25% and 33.66% and 35.98% and 35.44% and 36.86% and 31.41%
  % CD3^+ of lymphocyte: 58.95% and 61.13% and 52.42% and 62.48% and 58.92% and 54.72%
  % CD4^+ of CD3^+: 38.97% and 39.86% and 36.50% and 29.65% and 37.02% and 40.10%
  % CD8^+ of CD3^+: 38.80% and 39.05% and 45.77% and 42.49% and 39.23% and 36.71%
  % CD8^+IFN-γ of CD3D^+CD8^+: 27.98% and 25.40% and 24.84% and 24.39% and 22.29% and 22.23%
T lymphocytes in tumors; 60 mg/kg, 60 mg/kg
  % Treg of CD4^+: 32.63% and 30.22% and 32.76% and 31.72% and 28.26%
  % CD3^+ of lymphocyte: 72.64% and 70.58% and 61.04% and 62.21% and 61.98% and 64.77%
  % CD4^+ of CD3^+: 36.42% and 31.49% and 39.77% and 27.21% and 38.87% and 37.34%
  % CD8^+ of CD3^+: 40.72% and 50.51% and 43.82% and 50.59% and 42.04% and 42.77%
  % CD8^+IFN-γ of CD3D^+CD8^+: 30.80% and 35.94% and 30.46% and 29.24% and 28.35% and 27.49%
B16-F10 tumors; 30 mg/kg and 60 mg/kg, P < 0.05, n = 8
  tumor weight compared with the control group: significantly decreased
B16-F10 tumors; 30 mg/kg and 60 mg/kg, day 20, P < 0.05, n = 8
  tumor volumes compared with the control group: significantly decreased
B16-F10 tumors; 30 mg/kg oral twice daily, day 7
  Tumor volume: 99.3 mm^3 and 102.9 mm^3 and 86.2 mm^3 and 112.1 mm^3 and 129.3 mm^3 and 84.9 mm^3 and 90.7 mm^3 and 100.1 mm^3
B16-F10 tumors; 30 mg/kg oral twice daily, day 9
  Tumor volume: 94.0 mm^3 and 102.4 mm^3 and 154.1 mm^3 and 112.8 mm^3 and 131.0 mm^3 and 131.8 mm^3 and 105.3 mm^3 and 143.3 mm^3
B16-F10 tumors; [5]
  Tumor volume: 898.0 mm^3 and 1417.3 mm^3 and 1288.9 mm^3 and 1376.0 mm^3 and 1578.0 mm^3 and 1342.0 mm^3 and 1122.6 mm^3 and 879.0 mm^3
  Tumor weight: 1578.0 mg
B16-F10 tumors; 60 mg/kg oral gavage twice daily, day 20
  IR (inhibition rate of tumor growth) according to tumor weight: 50.1%
B16-F10 tumors; 60 mg/kg oral twice daily, day 7
  Tumor volume: 88.0 mm^3 and 80.2 mm^3 and 120.2 mm^3 and 108.0 mm^3 and 102.8 mm^3 and 96.6 mm^3 and 115.1 mm^3 and 94.6 mm^3
B16-F10 tumors; 60 mg/kg oral twice daily, day 20
  Tumor weight: 1678.4 mg
CT26.WT; 24 h
  IC50: 21.9 ± 2.9 µM
CT26.WT; 48 h
  IC50: 15.3 ± 3.4 µM
B16-F10
  IC50: 32.1 ± 2.3 µM
